Source: article PMC12837263, “β,β-Dimethylacrylalkannin Restores Colistin Efficacy Against mcr- and TCS-Mediated Resistant Gram-Negative Bacteria via Membrane Disturbance” (Antibiotics, 2025)

How the values were obtained:
Type in all cases: cell-based
[1] = system: K. pneumoniae 251(mgrB、phoP、pmrA、blaKPC); assay: Checkerboard assay (MIC, FICI); settings: 251
Description: (§1) The FICI of β,β-Dim–colistin combination was determined by a checkerboard assay. Briefly, two-fold serial dilutions of β,β-Dim and colistin were prepared in a 96-well plate. After incubation at 37 °C for 18 h with bacterial suspension (10^6 CFU/mL), OD600 values were measured. FICI = (MICβ,β-Dim in combination/MICβ,β-Dim) + (MICcolistin in combination/MICcolistin). The synergistic effect of β,β-Dim with other antibiotics was measured in the same way. Synergy was considered to be an FICI ≤ 0.5.

[2] = system: K. pneumoniae 197(mcr-1、blaNDM); assay: Checkerboard assay (MIC, FICI); settings: 197
Description: as §1

[3] = system: K. pneumoniae 492(mcr-1、blaNDM); assay: Checkerboard assay (MIC, FICI); settings: 492
Description: as §1

[4] = system: K. pneumoniae 109(mcr-8); assay: Checkerboard assay (MIC, FICI); settings: 109
Description: as §1

[5] = system: K. pneumoniae 650(mgrB、phoP、pmrA、blaKPC); assay: Checkerboard assay (MIC, FICI); settings: 650
Description: as §1

[6] = system: S. Typhimurium ATCC 14028; assay: Checkerboard assay (MIC, FICI); settings: 14028
Description: as §1

[7] = system: A. baumannii ATCC 19606; assay: Checkerboard assay (MIC, FICI); settings: 19606
Description: as §1

[8] = system: K. pneumoniae 126(mcr-8); assay: Checkerboard assay (MIC, FICI); settings: 126
Description: as §1

[9] = system: K. pneumoniae 20(mcr-1); assay: Checkerboard assay (MIC, FICI); settings: 20(mcr-1)
Description: as §1

[10] = system: K. pneumoniae ATCC 13883; assay: Checkerboard assay (MIC, FICI); settings: 13883
Description: as §1

[11] = system: S. Typhimurium 9891(mcr-1); assay: Checkerboard assay (MIC, FICI); settings: 9891
Description: as §1

[12] = system: E. coli BW25113-pmrAD82N(pmrA); assay: Checkerboard assay (MIC, FICI); settings: BW25113-pmrAD82N
Description: as §1

[13] = system: P. aeruginosa PAO1; assay: Checkerboard assay (MIC, FICI); settings: PAO1
Description: as §1

[14] = system: E. coli pHSG299-mcr-3; assay: Checkerboard assay (MIC, FICI); settings: pHSG299-mcr-3
Description: as §1

[15] = system: K. pneumoniae 57(mcr-9、blaNDM); assay: Checkerboard assay (MIC, FICI); settings: 57
Description: as §1

[16] = system: K. pneumoniae 667(phoP、pmrA、blaKPC); assay: Checkerboard assay (MIC, FICI); settings: 667
Description: as §1

[17] = system: K. pneumoniae 29(mcr-8、pmrB、blaNDM); assay: Checkerboard assay (MIC, FICI); settings: 29
Description: as §1

[18] = system: E. coli BW25113-184; assay: Checkerboard assay (MIC, FICI); settings: BW25113-184
Description: as §1

[19] = system: E. coli BW25113-184-mcr-1; assay: Checkerboard assay (MIC, FICI); settings: BW25113-184-mcr-1
Description: as §1

[20] = system: E. coli ATCC 25922; assay: Checkerboard assay (MIC, FICI); settings: 25922
Description: as §1

[21] = system: E. coli BW25113-pmrBR93P(pmrB); assay: Checkerboard assay (MIC, FICI); settings: BW25113-pmrBR93P
Description: as §1

[22] = system: E. coli 13f4(mcr-1); assay: Checkerboard assay (MIC, FICI); settings: 13f4
Description: as §1

[23] = system: P. aeruginosa 9(mcr-1); assay: Checkerboard assay (MIC, FICI); settings: P. aeruginosa 9
Description: as §1

[24] = system: E. coli ZJ71(mcr-1); assay: Checkerboard assay (MIC, FICI); settings: ZJ71
Description: as §1

[25] = system: K. pneumoniae, E. coli, Salmonella, P. aeruginosa, and A. baumannii; assay: Checkerboard assay, panel of tested strains (summary statements); settings: with β,β-Dim; summary over tested strains
Description: as §1

[26] = system: K. pneumoniae 667; assay: Bacterial growth curves; settings: β,β-Dim 4 µg/mL, colistin 0.5 µg/mL, alone or combined; 24 h
Description: Overnight cultures of K. pneumoniae 667 and E. coli 13f4 were diluted to 10^6 CFU/mL; then, β,β-Dim (4 μg/mL), colistin (0.5 or 2 μg/mL), and their combination were co-incubated with bacterial suspensions in a 96-well plate. OD600 values were monitored hourly over a 24 h period.

With colistin the MIC of colistin ([1]; alone) was 512 µg/mL, the Potentation ([1]; fold drop of colistin MIC) was 1024 and the “MIC of colistin [combination]” value ([1]; with β,β-Dim) was 0.5 µg/mL. The MIC of colistin ([2]; alone) was 4 µg/mL, the Potentation ([2]; fold drop of colistin MIC) was 8 and the “MIC of colistin [combination]” value ([2]; with β,β-Dim) was 0.5 µg/mL. For the same substance, the MIC of colistin ([3]; alone) was 4 µg/mL, the Potentation ([3]; fold drop of colistin MIC) was 32 and the “MIC of colistin [combination]” value ([3]; with β,β-Dim) was 0.125 µg/mL. The MIC of colistin ([4]; alone) was 16 µg/mL, the Potentation ([4]; fold drop of colistin MIC) was 64 and the “MIC of colistin [combination]” value ([4]; with β,β-Dim) was 0.25 µg/mL. The MIC of colistin ([5]; alone) was 32 µg/mL, the Potentation ([5]; fold drop of colistin MIC) was 16 and the “MIC of colistin [combination]” value ([5]; with β,β-Dim) was 2 µg/mL. The MIC of colistin ([6]; alone) was 1 µg/mL, the Potentation ([6]; fold drop of colistin MIC) was 2 and the “MIC of colistin [combination]” value ([6]; with β,β-Dim) was 0.5 µg/mL. The MIC of colistin ([7]; alone) was 0.5 µg/mL, the Potentation ([7]; fold drop of colistin MIC) was 64 and the “MIC of colistin [combination]” value ([7]; with β,β-Dim) was 0.0078 µg/mL. The MIC of colistin ([8]; alone) was over 512 µg/mL, the Potentation ([8]; fold drop of colistin MIC) was 1024 and the “MIC of colistin [combination]” value ([8]; with β,β-Dim) was 0.5 µg/mL. For the same substance, the MIC of colistin ([9]; alone) was 64 µg/mL, the Potentation ([9]; fold drop of colistin MIC) was 64 and the “MIC of colistin [combination]” value ([9]; with β,β-Dim) was 1 µg/mL. For the same substance, the MIC of colistin ([10]; alone) was 0.5 µg/mL, the Potentation ([10]; fold drop of colistin MIC) was 4 and the “MIC of colistin [combination]” value ([10]; with β,β-Dim) was 0.125 µg/mL. The MIC of colistin ([11]; alone) was 16 µg/mL, the Potentation ([11]; fold drop of colistin MIC) was 8 and the “MIC of colistin [combination]” value ([11]; with β,β-Dim) was 2 µg/mL. The MIC of colistin ([12]; alone) was 16 µg/mL, the Potentation ([12]; fold drop of colistin MIC) was 32 and the “MIC of colistin [combination]” value ([12]; with β,β-Dim) was 0.5 µg/mL. The MIC of colistin ([13]; alone) was 1 µg/mL, the Potentation ([13]; fold drop of colistin MIC) was 2 and the “MIC of colistin [combination]” value ([13]; with β,β-Dim) was 0.5 µg/mL. The MIC of colistin ([14]; alone) was 2 µg/mL, the Potentation ([14]; fold drop of colistin MIC) was 16 and the MIC of colistin ([15]; alone) was 2 µg/mL. For the same substance, the Potentation ([15]; fold drop of colistin MIC) was 32, the “MIC of colistin [combination]” value ([15]; with β,β-Dim) was 0.0625 µg/mL and the MIC of colistin ([16]; alone) was 64 µg/mL. The Potentation ([16]; fold drop of colistin MIC) was 128, the “MIC of colistin [combination]” value ([16]; with β,β-Dim) was 0.5 µg/mL and the MIC of colistin ([17]; alone) was 64 µg/mL. For the same substance, the Potentation ([17]; fold drop of colistin MIC) was 256, the “MIC of colistin [combination]” value ([17]; with β,β-Dim) was 0.25 µg/mL and the MIC of colistin ([18]; alone) was 0.125 µg/mL. For the same substance, the Potentation ([18]; fold drop of colistin MIC) was 4, the “MIC of colistin [combination]” value ([18]; with β,β-Dim) was 0.0313 µg/mL and the MIC of colistin ([19]; alone) was 4 µg/mL. The Potentation ([19]; fold drop of colistin MIC) was 4, the “MIC of colistin [combination]” value ([19]; with β,β-Dim) was 1 µg/mL and the MIC of colistin ([20]; alone) was 0.125 µg/mL. For the same substance, the Potentation ([20]; fold drop of colistin MIC) was 4, the “MIC of colistin [combination]” value ([20]; with β,β-Dim) was 0.0313 µg/mL and the MIC of colistin ([21]; alone) was 8 µg/mL. For the same substance, the Potentation ([21]; fold drop of colistin MIC) was 32, the “MIC of colistin [combination]” value ([21]; with β,β-Dim) was 0.25 µg/mL and the MIC of colistin ([22]; alone) was 4 µg/mL. The Potentation ([22]; fold drop of colistin MIC) was 4, the “MIC of colistin [combination]” value ([22]; with β,β-Dim) was 1 µg/mL and the MIC of colistin ([23]; alone) was 4 µg/mL. For the same substance, the Potentation ([23]; fold drop of colistin MIC) was 8, the “MIC of colistin [combination]” value ([23]; with β,β-Dim) was 0.5 µg/mL and the MIC of colistin ([24]; alone) was 4 µg/mL. The Potentation ([24]; fold drop of colistin MIC) was 8, the “MIC of colistin [combination]” value ([24]; with β,β-Dim) was 0.5 µg/mL and the “colistin MIC in combination” value [25] was at most 2 µg/mL. The “reduction of colistin MIC” value [25] was 4–1024 fold and the “bacterial growth (growth curves)” value [26] was “neither β,β-Dim (4 µg/mL) nor colistin (0.5 µg/mL) alone inhibited the growth”.
